From patent publication US20250230193A1, “CYCLIC COMPOUND HAVING SELECTIVE KRAS INHIBITORY EFFECT ON HRAS AND NRAS” (CHUGAI SEIYAKU KABUSHIKI KAISHA, priority 2022, published 2025)

Legend:
[1] = molecular target: GDP-bound HRAS wild-type protein (Homo sapiens, UniProt P01112); test: Binding to HRAS by surface plasmon resonance (SPR), Single Cycle Kinetics; conditions: SPR, GDP-bound HRAS wild-type vs GDP-bound KRAS wild-type
[2] = molecular target: GDP-bound NRAS wild-type protein (Homo sapiens, UniProt P01111); test: Binding to NRAS by surface plasmon resonance (SPR), Single Cycle Kinetics; conditions: SPR, GDP-bound NRAS wild-type vs GDP-bound KRAS wild-type
GDP-bound NRAS wild-type protein, sequence (P01111 whole entry): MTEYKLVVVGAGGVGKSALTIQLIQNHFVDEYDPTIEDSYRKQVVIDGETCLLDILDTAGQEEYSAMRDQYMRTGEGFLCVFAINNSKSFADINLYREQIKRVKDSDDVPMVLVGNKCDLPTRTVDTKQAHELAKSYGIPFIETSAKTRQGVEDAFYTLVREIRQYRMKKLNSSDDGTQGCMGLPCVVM

GDP-bound HRAS wild-type protein, sequence (P01112 whole entry): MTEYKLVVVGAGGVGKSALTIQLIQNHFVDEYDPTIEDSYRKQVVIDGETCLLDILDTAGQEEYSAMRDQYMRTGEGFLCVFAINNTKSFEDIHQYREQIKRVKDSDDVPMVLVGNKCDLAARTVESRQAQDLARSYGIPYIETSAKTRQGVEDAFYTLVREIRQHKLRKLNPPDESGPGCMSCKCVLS

SMILES	HRAS/KRAS (ratio of KD value with respect to HRAS to KD value with respect to KRAS) [1]	NRAS/KRAS (ratio of KD value with respect to NRAS to KD value with respect to KRAS) [2]
CCCOC[C@H]1C(=O)N[C@@H]([C@@H](C)CC)C(=O)N2CCC[C@H]2C(=O)N(C)[C@H]2C/C=C\CCN(C2=O)[C@@H](CC2CCC(F)(F)CC2)C(=O)N(C)CC(=O)N[C@@H](CCc2ccc(C(F)(F)F)c(OC)c2)C(=O)N2C[C@H](OCC)C[C@H]2C(=O)N(C)C2(CCC2)C(=O)N(C)[C@@H](C2CCCC2)C(=O)N(C)[C@H](C(=O)N(C)C)CC(=O)N1C [PP2357]	B (a compound having 3 or more and less than 10 is denoted as B)	A (a compound having 10 or more and less than 20 is denoted as A)
CCC[C@H]1C(=O)N[C@@H]([C@@H](C)CC)C(=O)N(C)CC(=O)N(C)[C@H]2C/C=C\CCN(C2=O)[C@@H](Cc2ccc(C(F)(F)F)cc2)C(=O)N(C)CC(=O)N[C@@H](CCc2ccc(C(F)(F)F)c(OC)c2)C(=O)N2C[C@@H](C)C[C@H]2C(=O)N(C)C2(CCC2)C(=O)N(C)[C@@H](C2CCCC2)C(=O)N(C)[C@H](C(=O)N(C)C)CC(=O)N1C [PP2358]	B (a compound having 3 or more and less than 10 is denoted as B)	A (a compound having 10 or more and less than 20 is denoted as A)
CCOC[C@H]1C(=O)N[C@@H]([C@@H](C)CC)C(=O)N(C)CC(=O)N(C)[C@H]2C/C=C\CCN(C2=O)[C@@H](Cc2ccc(C(F)(F)F)cc2)C(=O)N(C)CC(=O)N[C@@H](CCc2ccc(C(F)(F)F)c(OC)c2)C(=O)N2C[C@@H](C)C[C@H]2C(=O)N(C)C2(CCC2)C(=O)N(C)[C@@H](C2CCCC2)C(=O)N(C)[C@H](C(=O)N(C)C)CC(=O)N1C [PP2359]	B (a compound having 3 or more and less than 10 is denoted as B)	A (a compound having 10 or more and less than 20 is denoted as A)
CCC[C@H]1C(=O)N[C@@H]([C@@H](C)CC)C(=O)N(C2CC2)CC(=O)N(C)[C@H]2C/C=C\CCN(C2=O)[C@@H](Cc2ccc(C(F)(F)F)cc2)C(=O)N(C)CC(=O)N[C@@H](CCc2ccc(C(F)(F)F)c(OC)c2)C(=O)N2C[C@@H](C)C[C@H]2C(=O)N(C)C2(CCC2)C(=O)N(C)[C@@H](C2CCCC2)C(=O)N(C)[C@H](C(=O)N(C)C)CC(=O)N1C [PP2360]	B (a compound having 3 or more and less than 10 is denoted as B)	A (a compound having 10 or more and less than 20 is denoted as A)
CCC[C@H]1C(=O)N[C@@H]([C@@H](C)CC)C(=O)N2CCC[C@H]2C(=O)N(C)[C@H]2C/C=C\CCN(C2=O)[C@@H](Cc2ccc(C(F)(F)F)cc2)C(=O)N(C)CC(=O)N[C@@H](CCc2ccc(C(F)(F)F)c(OC)c2)C(=O)N2C[C@@H](C)C[C@H]2C(=O)N(C)C2(CCC2)C(=O)N(C)[C@@H](C2CCCC2)C(=O)N(C)[C@H](C(=O)N(C)C)CC(=O)N1C [PP2362]	A (a compound having 10 or more and less than 20 is denoted as A)	A (a compound having 10 or more and less than 20 is denoted as A)
CCOC[C@H]1C(=O)N[C@@H]([C@@H](C)CC)C(=O)N2CCC[C@H]2C(=O)N(C)[C@H]2C/C=C\CCN(C2=O)[C@@H](Cc2ccc(C(F)(F)F)cc2)C(=O)N(C)CC(=O)N[C@@H](CCc2ccc(C(F)(F)F)c(OC)c2)C(=O)N2C[C@@H](C)C[C@H]2C(=O)N(C)C2(CCC2)C(=O)N(C)[C@@H](C2CCCC2)C(=O)N(C)[C@H](C(=O)N(C)C)CC(=O)N1C [PP2363]	B (a compound having 3 or more and less than 10 is denoted as B)	A (a compound having 10 or more and less than 20 is denoted as A)
CCC[C@H]1C(=O)N[C@@H]([C@@H](C)CC)C(=O)N(C)CC(=O)N(C)[C@H]2C/C=C\CCN(C2=O)[C@@H](Cc2ccc(C)cc2)C(=O)N(C)CC(=O)N[C@@H](CCc2ccc(C(F)(F)F)c(OC)c2)C(=O)N2C[C@@H](C)C[C@H]2C(=O)N(C)C2(CCC2)C(=O)N(C)[C@@H](C2CCCC2)C(=O)N(C)[C@H](C(=O)N(C)C)CC(=O)N1C [PP2364]	B (a compound having 3 or more and less than 10 is denoted as B)	A (a compound having 10 or more and less than 20 is denoted as A)
CCCOC[C@H]1C(=O)N[C@@H]([C@@H](C)CC)C(=O)N(C)CC(=O)N(C)[C@H]2C/C=C\CCN(C2=O)[C@@H](Cc2ccc(C)cc2)C(=O)N(C)CC(=O)N[C@@H](CCc2ccc(C(F)(F)F)c(OC)c2)C(=O)N2C[C@@H](C)C[C@H]2C(=O)N(C)C2(CCC2)C(=O)N(C)[C@@H](C2CCCC2)C(=O)N(C)[C@H](C(=O)N(C)C)CC(=O)N1C [PP2365]	B (a compound having 3 or more and less than 10 is denoted as B)	A (a compound having 10 or more and less than 20 is denoted as A)
CCC[C@H]1C(=O)N[C@@H]([C@@H](C)CC)C(=O)N(C2CC2)CC(=O)N(C)[C@H]2C/C=C\CCN(C2=O)[C@@H](Cc2ccc(C)cc2)C(=O)N(C)CC(=O)N[C@@H](CCc2ccc(C(F)(F)F)c(OC)c2)C(=O)N2C[C@@H](C)C[C@H]2C(=O)N(C)C2(CCC2)C(=O)N(C)[C@@H](C2CCCC2)C(=O)N(C)[C@H](C(=O)N(C)C)CC(=O)N1C [PP2366]	A (a compound having 10 or more and less than 20 is denoted as A)	A (a compound having 10 or more and less than 20 is denoted as A)
CCCOC[C@H]1C(=O)N[C@@H]([C@@H](C)CC)C(=O)N(C2CC2)CC(=O)N(C)[C@H]2C/C=C\CCN(C2=O)[C@@H](Cc2ccc(C)cc2)C(=O)N(C)CC(=O)N[C@@H](CCc2ccc(C(F)(F)F)c(OC)c2)C(=O)N2C[C@@H](C)C[C@H]2C(=O)N(C)C2(CCC2)C(=O)N(C)[C@@H](C2CCCC2)C(=O)N(C)[C@H](C(=O)N(C)C)CC(=O)N1C [PP2367]	B (a compound having 3 or more and less than 10 is denoted as B)	A (a compound having 10 or more and less than 20 is denoted as A)
CCC[C@H]1C(=O)N[C@@H]([C@@H](C)CC)C(=O)N2CCC[C@H]2C(=O)N(C)[C@H]2C/C=C\CCN(C2=O)[C@@H](Cc2ccc(C)cc2)C(=O)N(C)CC(=O)N[C@@H](CCc2ccc(C(F)(F)F)c(OC)c2)C(=O)N2C[C@@H](C)C[C@H]2C(=O)N(C)C2(CCC2)C(=O)N(C)[C@@H](C2CCCC2)C(=O)N(C)[C@H](C(=O)N(C)C)CC(=O)N1C [PP2368]	A (a compound having 10 or more and less than 20 is denoted as A)	A (a compound having 10 or more and less than 20 is denoted as A)
CCCOC[C@H]1C(=O)N[C@@H]([C@@H](C)CC)C(=O)N2CCC[C@H]2C(=O)N(C)[C@H]2C/C=C\CCN(C2=O)[C@@H](Cc2ccc(C)cc2)C(=O)N(C)CC(=O)N[C@@H](CCc2ccc(C(F)(F)F)c(OC)c2)C(=O)N2C[C@@H](C)C[C@H]2C(=O)N(C)C2(CCC2)C(=O)N(C)[C@@H](C2CCCC2)C(=O)N(C)[C@H](C(=O)N(C)C)CC(=O)N1C [PP2369]	B (a compound having 3 or more and less than 10 is denoted as B)	A (a compound having 10 or more and less than 20 is denoted as A)
CCC[C@H]1C(=O)N[C@@H]([C@@H](C)CC)C(=O)N(C)CC(=O)N(C)[C@H]2C/C=C\CCN(C2=O)[C@@H](CC2CCCCC2)C(=O)N(C)CC(=O)N[C@@H](CCc2ccc(C(F)(F)F)c(OC)c2)C(=O)N2C[C@@H](C)C[C@H]2C(=O)N(C)C2(CCC2)C(=O)N(C)[C@@H](C2CCCC2)C(=O)N(C)[C@H](C(=O)N(C)C)CC(=O)N1C [PP2370]	B (a compound having 3 or more and less than 10 is denoted as B)	B (a compound having 3 or more and less than 10 is denoted as B)
CCOC[C@H]1C(=O)N[C@@H]([C@@H](C)CC)C(=O)N(C)CC(=O)N(C)[C@H]2C/C=C\CCN(C2=O)[C@@H](CC2CCCCC2)C(=O)N(C)CC(=O)N[C@@H](CCc2ccc(C(F)(F)F)c(OC)c2)C(=O)N2C[C@@H](C)C[C@H]2C(=O)N(C)C2(CCC2)C(=O)N(C)[C@@H](C2CCCC2)C(=O)N(C)[C@H](C(=O)N(C)C)CC(=O)N1C [PP2371]	B (a compound having 3 or more and less than 10 is denoted as B)	A (a compound having 10 or more and less than 20 is denoted as A)
CCC[C@H]1C(=O)N[C@@H]([C@@H](C)CC)C(=O)N(C2CC2)CC(=O)N(C)[C@H]2C/C=C\CCN(C2=O)[C@@H](CC2CCCCC2)C(=O)N(C)CC(=O)N[C@@H](CCc2ccc(C(F)(F)F)c(OC)c2)C(=O)N2C[C@@H](C)C[C@H]2C(=O)N(C)C2(CCC2)C(=O)N(C)[C@@H](C2CCCC2)C(=O)N(C)[C@H](C(=O)N(C)C)CC(=O)N1C [PP2372]	B (a compound having 3 or more and less than 10 is denoted as B)	A (a compound having 10 or more and less than 20 is denoted as A)
CCOC[C@H]1C(=O)N[C@@H]([C@@H](C)CC)C(=O)N(C2CC2)CC(=O)N(C)[C@H]2C/C=C\CCN(C2=O)[C@@H](CC2CCCCC2)C(=O)N(C)CC(=O)N[C@@H](CCc2ccc(C(F)(F)F)c(OC)c2)C(=O)N2C[C@@H](C)C[C@H]2C(=O)N(C)C2(CCC2)C(=O)N(C)[C@@H](C2CCCC2)C(=O)N(C)[C@H](C(=O)N(C)C)CC(=O)N1C [PP2373]	A (a compound having 10 or more and less than 20 is denoted as A)	A (a compound having 10 or more and less than 20 is denoted as A)
